In publication PMC3100590 (Journal of medicinal chemistry, 2011):
Read-outs that look alike come from different tables or passages of the source.

Columns and labels:
dopamine D1 receptors = dopamine D1 receptors (Homo sapiens, UniProt P21728); assay: Dopamine D1 receptor binding; conditions: data not shown
[1] = biological target: T1, human D3 dopamine receptor (D3R) (Homo sapiens, UniProt P35462); assay type: binding; conditions: for decrease of D3R binding affinity on replacing the amide by the amine linker: amine analogue vs corresponding amide (13b vs 19; 15b vs 8j); for D2/D3: ratio of Ki values
T1 sequence (P35462 whole entry): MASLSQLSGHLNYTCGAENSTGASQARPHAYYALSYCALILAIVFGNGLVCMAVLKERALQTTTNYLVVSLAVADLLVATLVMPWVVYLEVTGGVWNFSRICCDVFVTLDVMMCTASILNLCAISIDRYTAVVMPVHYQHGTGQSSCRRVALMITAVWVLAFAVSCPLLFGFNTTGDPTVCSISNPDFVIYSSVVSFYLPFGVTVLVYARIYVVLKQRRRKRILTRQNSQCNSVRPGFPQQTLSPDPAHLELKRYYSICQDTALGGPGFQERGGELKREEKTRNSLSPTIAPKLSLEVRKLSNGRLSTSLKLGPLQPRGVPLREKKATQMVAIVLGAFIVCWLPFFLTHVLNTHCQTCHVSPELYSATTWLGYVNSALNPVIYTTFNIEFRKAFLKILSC

hD3 (D3R) = hD3 (D3R) (Homo sapiens, UniProt P35462); assay: Quinpirole-induced mitogenesis assay in hD3-transfected CHOp cells; assay type: cell-based
hD3 (D3R), sequence (P35462 whole entry): as above

[2] = biological target: human D2L dopamine receptor (D2R) (Homo sapiens, UniProt P14416); assay type: binding; conditions: for Ki: read-out: D2R Ki ± S.E.M., Table 2, HEK 293 hD2LR, 125I-IABN
human D2L dopamine receptor (D2R), sequence (P14416 whole entry): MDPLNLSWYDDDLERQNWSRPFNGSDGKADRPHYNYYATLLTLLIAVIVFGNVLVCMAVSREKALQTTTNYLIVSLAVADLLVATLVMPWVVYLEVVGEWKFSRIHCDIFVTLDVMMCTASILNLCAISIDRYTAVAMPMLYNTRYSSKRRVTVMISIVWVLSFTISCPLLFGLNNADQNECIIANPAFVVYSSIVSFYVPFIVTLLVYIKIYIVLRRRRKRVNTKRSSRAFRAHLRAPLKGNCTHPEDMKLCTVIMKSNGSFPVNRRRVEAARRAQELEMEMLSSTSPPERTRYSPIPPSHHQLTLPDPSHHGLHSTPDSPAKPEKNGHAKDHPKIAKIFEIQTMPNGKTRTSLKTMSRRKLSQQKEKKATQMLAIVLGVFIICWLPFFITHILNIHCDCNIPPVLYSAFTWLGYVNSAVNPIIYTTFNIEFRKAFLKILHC

[3] = biological target: T1, human D3 dopamine receptor (D3R); conditions: Table 2; previously reported, ref [6]; cited from earlier work

dopamine D1 receptors, sequence (P21728 whole entry): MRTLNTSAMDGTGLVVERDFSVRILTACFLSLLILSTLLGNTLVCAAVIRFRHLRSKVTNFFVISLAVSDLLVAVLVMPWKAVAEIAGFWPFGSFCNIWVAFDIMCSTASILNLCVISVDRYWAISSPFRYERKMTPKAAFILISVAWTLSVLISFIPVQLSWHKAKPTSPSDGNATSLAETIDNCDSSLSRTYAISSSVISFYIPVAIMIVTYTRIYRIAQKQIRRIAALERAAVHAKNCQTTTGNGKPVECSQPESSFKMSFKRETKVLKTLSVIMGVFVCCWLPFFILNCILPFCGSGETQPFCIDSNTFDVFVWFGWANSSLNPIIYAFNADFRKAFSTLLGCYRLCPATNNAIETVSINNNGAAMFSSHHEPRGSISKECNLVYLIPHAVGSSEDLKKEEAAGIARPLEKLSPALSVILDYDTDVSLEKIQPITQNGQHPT

O=C(NCCC(F)CN1CCN(c2cccc(Cl)c2Cl)CC1)c1cc2ccccc2o1 (centres unmarked) [Compound 8d, N-(4-(4-(2,3-Dichlorophenyl)piperazin-1-yl)-3-fluorobutyl)benzofuran-2-carboxamide]
binding at dopamine D1 receptors (dopamine D1 receptors): selectivity over D1

O=C(NCCC(F)CN1CCN(c2cccc(Cl)c2Cl)CC1)c1cc2ccccc2[nH]1 (centres unmarked) [Compound 8h, N-(4-(4-(2,3-Dichlorophenyl)piperazin-1-yl)-3-fluorobutyl)-1H-indole-2-carboxamide]
D3R-selectivity over D2R [1]: > 130 fold

COc1ccccc1N1CCN(CC(F)CCNC(=O)c2ccc3c(c2)Cc2ccccc2-3)CC1 (centres unmarked) [Compound 8i, N-(3-Fluoro-4-(4-(2-methoxyphenyl)piperazin-1-yl)butyl)-9H-fluorene-2-carboxamide]
binding at dopamine D1 receptors (dopamine D1 receptors): selectivity over D1

O=C(NCCC(F)CN1CCN(c2cccc(Cl)c2Cl)CC1)c1ccc2c(c1)Cc1ccccc1-2 (centres unmarked) [Compound 8j, N-(4-(4-(2,3-Dichlorophenyl)piperazin-1-yl)-3-fluorobutyl)-9H-fluorene-2-carboxamide]
D3R-selectivity over D2R [1]: > 1000 fold | binding at dopamine D1 receptors (dopamine D1 receptors): selectivity over D1

COc1ccccc1N1CCN(CC(F)CCNC(=O)c2cc3ccccc3s2)CC1 (centres unmarked) [Compound 8k, N-(3-Fluoro-4-(4-(2-methoxyphenyl)piperazin-1-yl)butyl)benzo[b]thiophene-2-carboxamide]
D3R-selectivity over D2R [1]: > 60 fold

O=C(NCCC(F)CN1CCN(c2cccc(Cl)c2Cl)CC1)c1cc2ccccc2s1 (centres unmarked) [Compound 8l, N-(4-(4-(2,3-Dichlorophenyl)piperazin-1-yl)-3-fluorobutyl)benzo[b]thiophene-2-carboxamide]
D3R-selectivity over D2R [1]: > 130 fold

COc1ccc2[nH]c(C(=O)NCCC(F)CN3CCN(c4ccccc4OC)CC3)cc2c1 (centres unmarked) [Compound 8m, N-(3-Fluoro-4-(4-(2-methoxyphenyl)piperazin-1-yl)butyl)-5-methoxy-1H-indole-2-carboxamide]
D3R-selectivity over D2R [1]: > 60 fold

COc1ccc2[nH]c(C(=O)NCCC(F)CN3CCN(c4cccc(Cl)c4Cl)CC3)cc2c1 (centres unmarked) [Compound 8n, N-(4-(4-(2,3-Dichlorophenyl)piperazin-1-yl)-3-fluorobutyl)-5-methoxy-1H-indole-2-carboxamide]
D3R-selectivity over D2R [1]: > 130 fold | EC50 (hD3 (D3R)): 4.9 nM | functional profile in the D3R mitogenesis assay (hD3 (D3R)): more potent partial agonist than an antagonist | D3 mitogenesis % stimulation (hD3 (D3R); agonist mode, value in parentheses): 14.9%

CN(CCC(F)CN1CCN(c2cccc(Cl)c2Cl)CC1)Cc1ccc2c(c1)Cc1ccccc1-2 (centres unmarked) [Compound 15b, N-((9H-Fluoren-2-yl)methyl)-4-(4-(2,3-dichlorophenyl)piperazin-1-yl)-3-fluoro-N-methylbutan-1-amine]
D2R binding affinity increased on replacing the amide by the amine linker ([2]; 15b vs amide 8j): ~ 2 fold | decrease of D3R binding affinity on replacing the amide by the amine linker [1]: 150 fold

COc1ccccc1N1CCN(CCCCNC(=O)c2ccc3c(c2)Cc2ccccc2-3)CC1 [Compound 18, N-(4-(4-(2-methoxyphenyl)piperazin-1-yl)butyl)-9H-fluorene-2-carboxamide]
D2/D3 [3]: 185

N-(Benzo[b]thiophen-2-ylmethyl)-4-(4-(2,3-dichlorophenyl)piperazin-1-yl)-N-propylbutan-1-amine [Compound 13b]
D2R binding affinity reduced on replacing the amide by the amine linker ([2]; 13b vs amide 19): 2.5 fold | Ki [2]: 162 ± 1.2 nM | D3R-selectivity over D2R [1]: 2 fold | D2/D3 ([1]; Table 2): 2 | decrease of D3R binding affinity on replacing the amide by the amine linker [1]: 126 fold

N-(Benzo[b]thiophen-2-ylmethyl)-4-(4-(2-methoxyphenyl)piperazin-1-yl)-N-propylbutan-1-amine [Compound 13a]
Ki [2]: 69.9 ± 7.3 nM | D2/D3 ([1]; Table 2): 1 | Ki ([1]; read-out: D3R Ki ± S.E.M., Table 2, HEK 293 hD3R, 125I-IABN): 67.9 ± 2.4 nM
